# Laboratory results taken from patent publication US10278931B2, “Composition for treatment of inflammatory bowel disease and atopic dermatitis” (INNOPHARMASCREEN INC., priority 2015, dated 2019).
# How the values were obtained:
# [1] = tested on: TSLP secretion from human mast cells (HMC-1 cells); experiment: TSLP secretion ELISA in PMACI-stimulated mast cells; type: cell-based
# Description: (§1) (1) Cell culture: A human mast cell line (HMC-1) was cultured in an IMDM supplemented with 10% FBS at 37° C. and 5% CO2. Candidate materials were dissolved in DMSO, and then filtered using a 0.22 μm filter. The resulting candidate materials were diluted with DMSO and the HMC-1 cells were treated therewith.
# (3) Enzyme-linked immunosorbent assay (ELISA): Mast cells (3×10^6 cells/ml) were stabilized for 1 hour, and then treated with 0.1 μM, 1 μM, and 10 μM of candidate materials, followed by treatment with PMACI for 8 hours. The mast cells were centrifuged to obtain supernatants. To measure the amount of TSLP secreted from the cells, ELISA was used. The ELISA was performed in 96-well plates coated with 1 μg/well of TSLP capture Ab. The coated plates were washed twice with PBS. The cells were treated with PBS containing 10% FBS for 2 hours. Thereafter, the cells were washed with PBS containing 0.05% Tween-20 (Sigma), and recombinant TSLP was used to draw a standard curve. Subsequently, the plates were exposed to a biotinylated-TSLP antibody, Avidin peroxidase, an ARTS substrate containing 30% H2O2, and then measured at 405 nm.
# inflammatory cytokines = experiment: Inflammatory cytokine production and mRNA expression in HMC-1 cells; type: cell-based, human
# Description: as §1
# (5) Reverse transcription-polymerase chain reaction (RT-PCR) quantitative real time PCR: Total RNA was isolated from cells and tissues, and cDNA was synthesized using a reverse transcriptase and was then reacted with cytokine primers to be analyzed, followed by PCR and real-time PCR. The RT-PCR products were subjected to electrophoresis using 1.5% agarose gel for analysis.
# DSS-induced animal model = experiment: DSS-induced inflammatory bowel disease (enteritis) model; type: in vivo, C57BL/6 mice
# Description: Six-week-old female SPF (Specific pathogen-free) C57BL/6 mice were purchased from DuPont Biotech. The mice were allowed to freely ingest a feed and water after an acclimation period of 1 week in an animal room of Hoseo University Safety Evaluation Center maintained at temperature of 21±3° C., humidity of 50±20%, and light/darkness cycle of 12 h/12 h. All procedures in the present animal experiment were conducted after approved by the Animal Experimental Ethics Committee of Hoseo University (HTRC-15-19, and HTRC-16-22(2)).
# Dextran sodium sulfate (cat no 160110 by Mpbio. corn) as a colitis inducer was diluted to 3% concentration in drinking water and orally administered to mice to induce enteritis. The mice were divided into 6 groups and DW was administered to the animals of a control, and 1.0 mg/kg and 10 mg/kg of the test material were orally administered to the animals of the experimental groups once a day for […]. Sulfasalazine (100 mg/kg) dissolved in crude olive oil was orally administered once a day to the animals of a positive control. In acute cases, disease progression levels were examined after 5 days of administration. In chronic cases, disease progression levels were examined 15 days and 30 days after the 5 days of administration (reference: Toxicology Reports 2 (2015) 10391045-Caryophyllene attenuates dextran sulfate sodium-induced colitis in mice via modulation of gene expression associated mainly with colon inflammation).
# Body weights were measured once for 5 days or more during the test period. The measured weights were quantified as 0 point if there was no difference compared with the normal control, 1 point for weight loss rate of 15%, 2 points for 510%, 3 points for 1015%, and 4 points for >15%. Feces observation was performed to examine the incidence of diarrhea, and the results thereof were quantified as scores (0, normal stool; 1, mildly soft stool; 2, very soft stool; 3, very soft stool (no regular shape); 4, watery stool).
# Rectal tissues and blood were collected from 5 individuals for each of the autopsy times. Yuhan ketamine 50® (Yuhan Corporation, Korean) and Rompun (Bayer, USA) were mixed in a ratio of 3:1, and then used to anesthetize animals via muscular injection. Each anesthetized animal was subjected to laparotomy to collect blood from the abdominal artery, and after blood collection, the abdominal artery was cut and subjected to venesection and death to collect rectal tissue. The length and weight of the collected tissue were measured to calculate weight per 1 cm of the tissue. Some of the collected tissues were used in biopsy, and some thereof were frozen in liquid nitrogen and stored at −70° C. before analysis. […]
# [2] = target: T1, human recombinant caspase-1 (Homo sapiens, UniProt P29466); experiment: Recombinant caspase-1 activity assay (kit); type: biochemical; conditions: caspase-1 assay kit
# T1 sequence (P29466 120-404): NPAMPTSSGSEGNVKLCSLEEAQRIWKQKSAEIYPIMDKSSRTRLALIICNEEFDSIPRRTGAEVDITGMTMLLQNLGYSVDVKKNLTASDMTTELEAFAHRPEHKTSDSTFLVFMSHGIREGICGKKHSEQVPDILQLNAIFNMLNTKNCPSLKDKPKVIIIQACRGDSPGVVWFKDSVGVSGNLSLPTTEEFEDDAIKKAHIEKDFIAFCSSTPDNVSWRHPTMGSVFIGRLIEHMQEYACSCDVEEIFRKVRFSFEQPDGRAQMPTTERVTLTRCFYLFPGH
# Description: (4) Caspase-1 assay: Recombinant caspase-1 and a drug were allowed to react, and then activity measurement was performed using a caspase-1 assay kit (R&D Systems Inc., Minneapolis, Minn., USA).
# Recombinant caspase-1 and a drug were allowed to react, and then activity was measured using a caspase-1 assay kit (R&D Systems Inc., Minneapolis, Minn., USA).
# IL-6, IL-22, IL-33 = experiment: Western blotting of cytokines in DNCB skin tissue lysates; type: in vivo, balb/c mice; conditions: changed slightly
# Description: E. Western blotting analysis: Western blotting analysis was performed to verify differences in protein expression in the above antibody array experiment. Proteins from the tissue lysates were separated on SDS-PAGE. The electrophoresed proteins were then transferred onto the PVDF membranes. After washing with PBST solution, the PVDF membranes were blocked with 5% skim milk powder for 1 hour and then reacted with a primary antibody overnight at 4° C. The membranes were washed with PBST solution and reacted with a secondary antibody (anti-IgG) conjugated with horseradish peroxidase (HRP) for 1 hour at room temperature and examined with a photoresist film.
smiles,measurement,setting,value
Cl.N=C(N)NC(=N)Nc1ccc(Cl)cc1 [IPS-07001],TSLP production,"[1]; HMC-1 cells, concentration of 0.011 μM (so in the source), non-cytotoxic",significantly regulated
same,TSLP secretion from mast cells,"[1]; PMACI-stimulated HMC-1 cells, ELISA",significantly inhibited
same,production and mRNA expression of various inflammatory cytokines,inflammatory cytokines,significantly inhibited
same,"enteritis inhibitory activity (ratio of enteric weight to enteric length, wt/cm)","DSS-induced animal model; 10 mg/kg oral, compared to DSS control",superior enteritis inhibitory activity
same,melena,"DSS-induced animal model; compared to the DSS-induced group, oral",significantly decreased
same,recombinant caspase-1 activity,[2],significantly inhibited
same,IL-6 protein expression (western blotting),"IL-6, IL-22, IL-33",decreased
same,IL-22 protein expression (western blotting),"IL-6, IL-22, IL-33",decreased
same,IL-33 protein expression (western blotting),"IL-6, IL-22, IL-33",decreased
